Test results published in the NIST ThermoML archive (doi:10.1016/j.tca.2015.10.001).
Numbers after ± are expanded uncertainties.

Experiments:
[1] = Crystal; DTA
[2] = Molar enthalpy of transition or fusion; conditions: Crystal; DSC

Normal melting temperature [1]: 28.40 ± 4 °C | Molar enthalpy of transition or fusion [2]: 57.8 ± 3.6 kJ/mol
SMILES: CCCCCCCCCCCCCCCCCC [octadecane]
